The values that follow come from ChEMBL document CHEMBL1157360, “Characterization of an integron carrying blaIMP-1 and a new aminoglycoside resistance gene, aac(6')-31, and its dissemination among genetically unrelated clinical isolates in a Brazilian hospital” (2007).

Common to all, as to assay type: functional
The subject of assay [1] is Acinetobacter baumannii. The experiment in a line: Antimicrobial activity against Acinetobacter baumannii 696 isolate harboring bla IMP-1 carrying integron In86 containing aminoglycoside resistance gene aac(6')-3.
Assay [2] concerns Acinetobacter baumannii. In words: Antimicrobial activity against Acinetobacter baumannii 501 isolate harboring bla IMP-1 carrying integron In86 containing aminoglycoside resistance gene aac(6')-3.
Assay [3] relates to Acinetobacter baumannii. The experiment in a line: Antimicrobial activity against Acinetobacter baumannii 9043 isolate harboring bla IMP-1 carrying integron In86 containing aminoglycoside resistance gene aac(6')-3.
Assay [4] has as its system Acinetobacter sp. The experiment in a line: Antimicrobial activity against Acinetobacter sp. 5248 isolate harboring bla IMP-1 carrying integron In86 containing aminoglycoside resistance gene aac(6')-3.
For assay [5], the system named is Acinetobacter sp. In words: Antimicrobial activity against Acinetobacter sp. 5227 isolate harboring bla IMP-1 carrying integron In86 containing aminoglycoside resistance gene aac(6')-3.
Assay [6] deals with Pseudomonas putida. The experiment in a line: Antimicrobial activity against Pseudomonas putida 12346 isolate harboring bla IMP-1 carrying integron In86 containing aminoglycoside resistance gene aac(6')-3.
Assay [7] has as its system Acinetobacter baumannii. The experiment in a line: Antimicrobial activity against Acinetobacter baumannii 695 isolate harboring bla IMP-1 carrying integron In86 containing aminoglycoside resistance gene aac(6')-3.
Assay [8] concerns Acinetobacter baumannii. The experiment in a line: Antimicrobial activity against Acinetobacter baumannii 694 isolate harboring bla IMP-1 carrying integron In86 containing aminoglycoside resistance gene aac(6')-3.
The test system of assay [9] is Escherichia coli. In words: Antimicrobial activity against Escherichia coli DH5alpha.
In assay [10] the test system is Escherichia coli. The experiment in a line: Antimicrobial activity against Escherichia coli DH5alpha harboring recombinant pIMPAR31.

In brackets after ≈: the same amount, converted by molar mass.

For `CO/N=C(\C(=O)N[C@@H]1C(=O)N2C(C(=O)[O-])=C(C[N+]3(C)CCCC3)CS[C@H]12)c1csc(N)n1`, the MIC in assay [1], in assay [2], in assay [3], in assay [4], in assay [5] and in assay [6] was over 16 µg/mL in each case. Further, the minimal inhibitory concentration (MIC) in [7] and in [8] was over 16 µg/mL each time.

`NCC[C@H](O)C(=O)N[C@@H]1C[C@H](N)[C@@H](O[C@H]2O[C@H](CN)[C@@H](O)[C@H](O)[C@H]2O)[C@H](O)[C@H]1O[C@H]1O[C@H](CO)[C@@H](O)[C@H](N)[C@H]1O` [AMIKACIN]: the MIC (commonly the least concentration at which growth counts as inhibited) in assay [1] was over 32 µg/mL; in assay [9], 0.5 µg/mL (≈ 0.854 µM); in assay [2], 32 µg/mL (≈ 54.6 µM); in [3], over 32 µg/mL; in assay [10], 8 µg/mL; in assay [4], 32 µg/mL (≈ 54.6 µM). Moreover, the minimal inhibitory concentration (MIC) in assay [5] was over 32 µg/mL; in [6], over 32 µg/mL; in assay [7], 32 µg/mL (≈ 54.6 µM); in assay [8] it was over 32 µg/mL.

Turning to `CC1(C)S[C@@H]2[C@H](NC(=O)[C@H](N)c3ccccc3)C(=O)N2[C@H]1C(=O)O` [AMPICILLIN], the minimal inhibitory concentration (MIC) in assay [1], in [2], in [3], in [4], in assay [5] and in assay [6] was over 16 µg/mL each time. Besides, the MIC in assay [7] and in assay [8] was over 16 µg/mL each time.

`C[C@H]1[C@H](NC(=O)/C(=N\OC(C)(C)C(=O)O)c2csc(N)n2)C(=O)N1S(=O)(=O)O` [AZTREONAM]: the MIC in [1], in [2], in assay [3], in assay [4], in assay [5] and in [6] was over 16 µg/mL throughout. The MIC in assay [7] and in assay [8] was over 16 µg/mL throughout.

In the case of `CC(C)(O/N=C(\C(=O)N[C@@H]1C(=O)N2C(C(=O)[O-])=C(C[n+]3ccccc3)CS[C@H]12)c1csc(N)n1)C(=O)O` [CEFTAZIDIME], the MIC in assay [1], in [2], in [3], in [4], in assay [5] and in assay [6] was over 16 µg/mL throughout. The MIC in [7] and in [8] was over 16 µg/mL in each case.

As to `O=C(O)c1cn(C2CC2)c2cc(N3CCNCC3)c(F)cc2c1=O` [CIPROFLOXACIN], the MIC in assay [1] was 0.5 µg/mL (≈ 1.51 µM); in [2] it was 0.12 µg/mL (≈ 0.362 µM); in [3], over 2 µg/mL; in assay [4], over 4 µg/mL; in assay [5] it was 2 µg/mL (≈ 6.04 µM); in assay [6], over 2 µg/mL. The MIC in assay [7] is over 4 µg/mL; in assay [8] it was 1 µg/mL (≈ 3.02 µM).

In the case of `COc1c(N2CCNC(C)C2)c(F)cc2c(=O)c(C(=O)O)cn(C3CC3)c12` (stereo not drawn) [GATIFLOXACIN], the MIC in assay [1] was 0.06 µg/mL (≈ 0.16 µM); in [2], 0.12 µg/mL (≈ 0.32 µM); in assay [3] it was over 4 µg/mL; in assay [4] it was 4 µg/mL (≈ 10.7 µM); in assay [5], 1 µg/mL (≈ 2.66 µM); in [6], over 4 µg/mL. The MIC in [7] stood at 4 µg/mL (≈ 10.7 µM); in assay [8] it was 0.25 µg/mL (≈ 0.666 µM).

With `C[C@@H](O)[C@H]1C(=O)N2C(C(=O)O)=C(SCCNC=N)C[C@H]12` [IMIPENEM ANHYDROUS], the minimal inhibitory concentration (MIC) in assay [1], in [2], in assay [3], in [4], in assay [5] and in [6] was over 8 µg/mL throughout. The MIC in assay [7] and in [8] was over 8 µg/mL each time.

With `CN[C@@H]1[C@@H](O)[C@@H](O[C@@H]2[C@@H](O)[C@H](O[C@H]3O[C@H](CN)[C@@H](O)[C@H](O)[C@H]3O)[C@@H](N)C[C@H]2NC(=O)[C@@H](O)CN)OC[C@]1(C)O` [ISEPAMICIN], the MIC in [9] was 0.12 µg/mL (≈ 0.211 µM); in [10], 4 µg/mL.

Regarding `NC[C@H]1O[C@H](O[C@H]2[C@H](O)[C@@H](O[C@H]3O[C@H](CO)[C@@H](O)[C@H](N)[C@H]3O)[C@H](N)C[C@@H]2N)[C@H](O)[C@@H](O)[C@@H]1O` [KANAMYCIN], it took 0.5 µg/mL (≈ 1.03 µM) to inhibit growth in assay [9] (MIC).

Take `C[C@H]1COc2c(N3CCN(C)CC3)c(F)cc3c(=O)c(C(=O)O)cn1c23.C[C@H]1COc2c(N3CCN(C)CC3)c(F)cc3c(=O)c(C(=O)O)cn1c23.O` [LEVOFLOXACIN]: the MIC in assay [1] is 0.25 µg/mL; in assay [2] it was 0.25 µg/mL; in assay [3] it was over 4 µg/mL; in assay [4], 4 µg/mL; in assay [5], 2 µg/mL; in assay [6], over 4 µg/mL. In addition, the MIC in [7] was over 4 µg/mL; in assay [8], 0.25 µg/mL.

Turning to `C[C@@H](O)[C@H]1C(=O)N2C(C(=O)O)=C(S[C@@H]3CN[C@H](C(=O)N(C)C)C3)[C@H](C)[C@H]12` [MEROPENEM], the MIC in assay [1], in [2], in [3], in [4], in assay [5] and in assay [6] was over 8 µg/mL throughout. In addition, the minimum inhibitory concentration (MIC) in assay [7] and in assay [8] was over 8 µg/mL in each case.

Turning to `CCN[C@@H]1C[C@H](N)[C@@H](O[C@H]2OC(CN)=CC[C@H]2N)[C@H](O)[C@H]1O[C@H]1OC[C@](C)(O)[C@H](NC)[C@H]1O` [NETILMICIN], the MIC in assay [1] is 32 µg/mL (≈ 67.3 µM); in [9], 0.5 µg/mL (≈ 1.05 µM); in assay [2], over 32 µg/mL; in [3], over 32 µg/mL; in [10], 4 µg/mL; in assay [4], 16 µg/mL (≈ 33.6 µM). Moreover, the MIC was over 32 µg/mL in [5], over 32 µg/mL in assay [6], 8 µg/mL (≈ 16.8 µM) in assay [7] and 32 µg/mL (≈ 67.3 µM) in assay [8].

Consider `CCN1CCN(C(=O)N[C@@H](C(=O)N[C@@H]2C(=O)N3[C@@H]2SC(C)(C)[C@@H]3C(=O)O)c2ccccc2)C(=O)C1=O` [PIPERACILLIN], for which the MIC in assay [1] is over 128 µg/mL; in assay [2], 32 µg/mL (≈ 61.8 µM); in assay [3] it was over 128 µg/mL; in assay [4], over 128 µg/mL; in assay [5] it was over 128 µg/mL; in [6], 64 µg/mL (≈ 124 µM). The MIC in assay [7] is 128 µg/mL (≈ 247 µM); in assay [8] it was over 128 µg/mL.

In the case of `CN[C@@H]1[C@@H](O)[C@@H](O[C@@H]2[C@@H](O)[C@H](O[C@H]3OC(CN)=CC[C@H]3N)[C@@H](N)C[C@H]2N)OC[C@]1(C)O` [SISOMICIN], the MIC in assay [9] was at most 0.25 µg/mL; in assay [10] it was 8 µg/mL.

On to `CC1(C)S[C@@H]2[C@H](NC(=O)[C@H](C(=O)O)c3ccsc3)C(=O)N2[C@H]1C(=O)O` [TICARCILLIN], for which the MIC in assay [1], in assay [2], in assay [3], in assay [4], in [5] and in assay [6] was over 128 µg/mL each time. In addition, the minimum inhibitory concentration (MIC) in [7] and in [8] was over 128 µg/mL throughout.

On to `NC[C@H]1O[C@H](O[C@H]2[C@H](O)[C@@H](O[C@H]3O[C@H](CO)[C@@H](O)[C@H](N)[C@H]3O)[C@H](N)C[C@@H]2N)[C@H](N)C[C@@H]1O` [TOBRAMYCIN], for which the MIC is 16 µg/mL (≈ 34.2 µM) in assay [1]; 0.25 µg/mL (≈ 0.535 µM) in assay [9]; over 16 µg/mL in assay [2]; 16 µg/mL (≈ 34.2 µM) in assay [3]; 4 µg/mL in assay [10]; 8 µg/mL (≈ 17.1 µM) in assay [4]. For the same compound, the MIC in assay [5] is 16 µg/mL (≈ 34.2 µM); in [6] it was over 16 µg/mL; in assay [7], over 16 µg/mL; in [8] it was 16 µg/mL (≈ 34.2 µM).
